In publication PMC10823224, “γδ T cell antigen receptor polyspecificity enables T cell responses to a broad range of immune challenges” (Proceedings of the National Academy of Sciences of the …, 2024):

Biological target: T1, human recombinant TG2 (Homo sapiens, UniProt P21980)
T1 construct: gene TGM2; recombinant, enzymatically active
T1 sequence (P21980 2-687): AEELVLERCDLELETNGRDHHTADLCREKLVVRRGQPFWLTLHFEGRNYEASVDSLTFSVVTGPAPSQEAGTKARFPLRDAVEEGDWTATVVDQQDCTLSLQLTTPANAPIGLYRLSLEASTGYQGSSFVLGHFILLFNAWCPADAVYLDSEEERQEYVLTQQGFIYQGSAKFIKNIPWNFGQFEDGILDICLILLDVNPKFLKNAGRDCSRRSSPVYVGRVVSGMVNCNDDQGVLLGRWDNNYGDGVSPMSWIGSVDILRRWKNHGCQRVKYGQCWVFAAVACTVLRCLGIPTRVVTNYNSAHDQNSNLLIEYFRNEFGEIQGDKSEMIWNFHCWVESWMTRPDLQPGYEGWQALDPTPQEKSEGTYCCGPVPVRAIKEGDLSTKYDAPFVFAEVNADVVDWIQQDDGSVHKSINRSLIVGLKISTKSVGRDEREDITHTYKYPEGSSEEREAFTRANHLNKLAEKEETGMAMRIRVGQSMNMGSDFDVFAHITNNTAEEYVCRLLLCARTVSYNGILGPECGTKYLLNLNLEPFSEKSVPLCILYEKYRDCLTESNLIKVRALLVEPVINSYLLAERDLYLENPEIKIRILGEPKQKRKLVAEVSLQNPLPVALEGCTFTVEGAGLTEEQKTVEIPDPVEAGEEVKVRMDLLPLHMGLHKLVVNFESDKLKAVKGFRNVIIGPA
Experiment: in vitro serotonylation of Rac1 peptide, ESI-MS
Assay type: biochemical
Details: 1 mM serotonin, biotinylated Rac1 peptide co-substrate, 10 mM CaCl2, pH 7.4, 37 °C overnight

SMILES: NCCc1c[nH]c2ccc(O)cc12 [5-HT]
- in vitro serotonylation of Rac1 peptide, ESI-MS: the peptide was modified with a single serotonin moiety
